The text below walks through data of patent EP4467141A1, “PYRAZOLO-QUINOLINES AS SELECTIVE INHIBITORS OF GENOTOXIC STRESS-INDUCED IKK/NF- KB PATHWAYS FOR CANCER THERAPY” (Max-Delbrück-Centrum für Molekulare Medizin in der …, priority 2023, dated 2024).

Each structure is given as a SMILES string. Read-outs that look alike come from different tables or passages of the source.

The inhibition is the drop in the measured response relative to a control, in per cent.

What all share (experiment): Kinase panel study
Common to all, as to assay type: biochemical
Conditions in all cases: for inhibition at 1 µM: 1000nM

One assay has as its target T1, BLK (Homo sapiens, UniProt P51451).
T1 construct: purchased Thermo Fisher Scientific
The procedure, abridged: (§1)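 Single-point inhibition data at 10 µM or 1 µM compound are shown. They were generated in ZLyte- or Adapta-format biochemical assays performed externally under standard conditions.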

A further assay has as its target T2, BTK (Homo sapiens, UniProt Q06187).
T2 construct: purchased Thermo Fisher Scientific
The procedure, abridged:
as §1

Another assay deals with T3, FLT3 (Homo sapiens, UniProt P36888).
T3 construct: purchased Thermo Fisher Scientific
T3 sequence (P36888 27-993): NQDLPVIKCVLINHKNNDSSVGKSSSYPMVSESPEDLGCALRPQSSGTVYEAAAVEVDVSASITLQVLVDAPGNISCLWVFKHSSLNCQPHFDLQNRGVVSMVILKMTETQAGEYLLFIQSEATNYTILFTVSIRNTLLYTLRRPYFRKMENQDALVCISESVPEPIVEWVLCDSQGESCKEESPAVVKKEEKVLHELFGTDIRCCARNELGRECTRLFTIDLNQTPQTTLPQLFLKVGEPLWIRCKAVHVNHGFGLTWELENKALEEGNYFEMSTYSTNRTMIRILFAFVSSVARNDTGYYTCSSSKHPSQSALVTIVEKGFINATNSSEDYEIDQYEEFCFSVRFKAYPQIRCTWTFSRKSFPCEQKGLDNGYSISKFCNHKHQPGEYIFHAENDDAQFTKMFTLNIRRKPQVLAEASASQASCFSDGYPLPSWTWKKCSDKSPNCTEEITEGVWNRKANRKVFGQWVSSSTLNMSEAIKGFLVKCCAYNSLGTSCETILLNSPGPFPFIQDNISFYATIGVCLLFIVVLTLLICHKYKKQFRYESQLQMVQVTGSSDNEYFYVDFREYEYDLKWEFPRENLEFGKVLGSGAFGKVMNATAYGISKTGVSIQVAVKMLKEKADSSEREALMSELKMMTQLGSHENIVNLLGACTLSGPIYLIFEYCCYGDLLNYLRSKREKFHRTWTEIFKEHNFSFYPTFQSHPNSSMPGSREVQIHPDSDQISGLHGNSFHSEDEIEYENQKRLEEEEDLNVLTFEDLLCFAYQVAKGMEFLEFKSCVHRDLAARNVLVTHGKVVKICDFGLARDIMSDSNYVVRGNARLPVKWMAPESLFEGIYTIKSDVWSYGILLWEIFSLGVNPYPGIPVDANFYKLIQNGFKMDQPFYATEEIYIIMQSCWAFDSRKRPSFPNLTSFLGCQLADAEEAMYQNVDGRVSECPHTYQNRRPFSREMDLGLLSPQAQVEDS
In a few lines:
as §1

The target of another assay is T4, IRAK1 (Homo sapiens, UniProt P51617).
T4 construct: purchased Thermo Fisher Scientific
T4 sequence (P51617 whole entry): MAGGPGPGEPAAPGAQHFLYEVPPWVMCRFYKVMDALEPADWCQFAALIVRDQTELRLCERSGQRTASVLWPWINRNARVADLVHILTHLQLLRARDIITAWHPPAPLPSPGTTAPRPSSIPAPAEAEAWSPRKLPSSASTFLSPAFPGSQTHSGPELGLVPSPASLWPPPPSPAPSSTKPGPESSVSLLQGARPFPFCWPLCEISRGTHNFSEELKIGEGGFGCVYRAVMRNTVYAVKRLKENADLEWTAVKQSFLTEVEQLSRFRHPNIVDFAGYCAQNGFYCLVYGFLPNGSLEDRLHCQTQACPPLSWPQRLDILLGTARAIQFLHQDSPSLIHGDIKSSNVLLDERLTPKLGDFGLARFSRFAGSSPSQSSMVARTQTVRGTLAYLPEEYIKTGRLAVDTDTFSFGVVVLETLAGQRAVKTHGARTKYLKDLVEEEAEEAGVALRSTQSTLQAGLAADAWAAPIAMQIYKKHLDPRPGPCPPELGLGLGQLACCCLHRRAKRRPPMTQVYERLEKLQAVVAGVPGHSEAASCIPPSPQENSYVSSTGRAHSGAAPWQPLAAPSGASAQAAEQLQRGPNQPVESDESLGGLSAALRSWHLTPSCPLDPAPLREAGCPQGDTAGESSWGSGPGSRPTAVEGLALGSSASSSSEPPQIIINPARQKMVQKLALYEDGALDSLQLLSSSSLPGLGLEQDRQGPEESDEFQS
In a few lines: as §1

For the next assay, the target named is T5, MAP4K2 (GCK) (Homo sapiens, UniProt Q12851).
T5 construct: purchased Thermo Fisher Scientific
T5 sequence (Q12851 1-820): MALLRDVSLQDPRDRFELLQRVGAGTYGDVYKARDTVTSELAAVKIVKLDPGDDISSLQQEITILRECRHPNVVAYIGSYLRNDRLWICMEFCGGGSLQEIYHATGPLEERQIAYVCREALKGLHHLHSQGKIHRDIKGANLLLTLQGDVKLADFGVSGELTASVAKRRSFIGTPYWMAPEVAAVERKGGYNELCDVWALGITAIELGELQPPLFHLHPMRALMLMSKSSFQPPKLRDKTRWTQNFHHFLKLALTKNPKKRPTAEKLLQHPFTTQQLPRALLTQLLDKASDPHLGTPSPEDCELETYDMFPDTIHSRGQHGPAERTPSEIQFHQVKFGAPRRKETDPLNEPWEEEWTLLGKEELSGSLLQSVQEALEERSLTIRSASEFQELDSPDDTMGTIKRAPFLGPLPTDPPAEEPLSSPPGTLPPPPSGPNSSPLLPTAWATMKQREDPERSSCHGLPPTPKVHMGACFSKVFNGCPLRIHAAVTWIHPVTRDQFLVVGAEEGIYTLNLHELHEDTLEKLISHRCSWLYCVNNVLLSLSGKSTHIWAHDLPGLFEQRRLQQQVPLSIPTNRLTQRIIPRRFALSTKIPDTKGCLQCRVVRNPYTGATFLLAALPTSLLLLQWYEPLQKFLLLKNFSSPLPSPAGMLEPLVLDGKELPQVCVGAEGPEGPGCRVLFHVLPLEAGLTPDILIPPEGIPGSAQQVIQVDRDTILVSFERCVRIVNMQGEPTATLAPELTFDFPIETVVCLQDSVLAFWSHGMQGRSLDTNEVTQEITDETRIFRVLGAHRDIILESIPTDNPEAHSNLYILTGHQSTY
The procedure, abridged: as §1

A further assay deals with T6, MINK1 (Homo sapiens, UniProt Q8N4C8).
T6 construct: purchased Thermo Fisher Scientific
T6 sequence (Q8N4C8 whole entry): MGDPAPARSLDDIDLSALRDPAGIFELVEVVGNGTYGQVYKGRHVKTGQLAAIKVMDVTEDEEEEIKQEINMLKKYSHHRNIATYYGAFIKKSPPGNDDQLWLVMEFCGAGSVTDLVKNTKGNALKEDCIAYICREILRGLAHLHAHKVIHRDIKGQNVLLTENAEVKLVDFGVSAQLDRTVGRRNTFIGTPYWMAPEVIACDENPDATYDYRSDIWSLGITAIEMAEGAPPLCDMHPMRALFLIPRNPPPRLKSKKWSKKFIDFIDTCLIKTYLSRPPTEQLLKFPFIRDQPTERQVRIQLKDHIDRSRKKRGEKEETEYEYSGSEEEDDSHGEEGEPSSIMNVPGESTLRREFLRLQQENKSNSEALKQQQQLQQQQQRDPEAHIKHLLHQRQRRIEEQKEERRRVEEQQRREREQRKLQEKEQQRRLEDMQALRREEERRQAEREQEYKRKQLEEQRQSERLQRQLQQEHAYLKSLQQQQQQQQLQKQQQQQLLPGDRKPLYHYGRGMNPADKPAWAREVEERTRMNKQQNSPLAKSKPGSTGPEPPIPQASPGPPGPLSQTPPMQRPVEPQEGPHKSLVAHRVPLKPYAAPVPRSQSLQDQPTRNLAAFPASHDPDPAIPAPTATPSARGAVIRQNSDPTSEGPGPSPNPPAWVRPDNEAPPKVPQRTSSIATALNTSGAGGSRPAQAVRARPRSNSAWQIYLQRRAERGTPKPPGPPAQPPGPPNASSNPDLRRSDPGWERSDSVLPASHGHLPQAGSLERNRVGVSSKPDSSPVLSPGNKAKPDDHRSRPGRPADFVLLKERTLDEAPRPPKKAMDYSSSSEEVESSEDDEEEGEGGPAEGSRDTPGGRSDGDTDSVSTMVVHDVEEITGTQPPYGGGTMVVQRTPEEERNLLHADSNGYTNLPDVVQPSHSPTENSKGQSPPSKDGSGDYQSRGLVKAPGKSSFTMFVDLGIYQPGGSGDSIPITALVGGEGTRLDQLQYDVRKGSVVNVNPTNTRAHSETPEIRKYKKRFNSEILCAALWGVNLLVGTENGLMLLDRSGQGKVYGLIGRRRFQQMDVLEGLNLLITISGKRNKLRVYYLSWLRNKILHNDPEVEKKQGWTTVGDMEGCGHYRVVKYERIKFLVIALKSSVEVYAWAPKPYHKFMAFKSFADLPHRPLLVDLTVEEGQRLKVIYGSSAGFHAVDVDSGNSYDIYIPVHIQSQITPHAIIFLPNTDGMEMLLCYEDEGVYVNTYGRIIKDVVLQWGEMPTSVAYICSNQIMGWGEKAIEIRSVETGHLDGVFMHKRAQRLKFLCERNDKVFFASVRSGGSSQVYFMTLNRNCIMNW
The procedure, abridged: as §1

The next assay has as its target T7, PIK3C2A (PI3K-C2 alpha) (Homo sapiens, UniProt O00443).
T7 construct: purchased Thermo Fisher Scientific
In a few lines: as §1

The mark [1] stands for this setting: read-out: Percentage of inhibition.
The mark [2] stands for this setting: 10000nM, read-out: Percentage of inhibition.
[3] abbreviates: BLK, compound at 10µM, read-out: % of Inhibition.
[4] abbreviates: BTK, compound at 10µM, read-out: % of Inhibition.
Setting [5] is: FLT3, compound at 10µM, read-out: % of Inhibition.
The mark [6] stands for this setting: IRAK1, compound at 10µM, read-out: % of Inhibition.
The mark [7] stands for this setting: MAP4K2 (GCK), compound at 10µM, read-out: % of Inhibition.
The mark [8] stands for this setting: MINK1, compound at 10µM, read-out: % of Inhibition.
The mark [9] stands for this setting: PIK3C2A (PI3K-C2 alpha), compound at 10µM, read-out: % of Inhibition.

T2 sequence (Q06187 whole entry): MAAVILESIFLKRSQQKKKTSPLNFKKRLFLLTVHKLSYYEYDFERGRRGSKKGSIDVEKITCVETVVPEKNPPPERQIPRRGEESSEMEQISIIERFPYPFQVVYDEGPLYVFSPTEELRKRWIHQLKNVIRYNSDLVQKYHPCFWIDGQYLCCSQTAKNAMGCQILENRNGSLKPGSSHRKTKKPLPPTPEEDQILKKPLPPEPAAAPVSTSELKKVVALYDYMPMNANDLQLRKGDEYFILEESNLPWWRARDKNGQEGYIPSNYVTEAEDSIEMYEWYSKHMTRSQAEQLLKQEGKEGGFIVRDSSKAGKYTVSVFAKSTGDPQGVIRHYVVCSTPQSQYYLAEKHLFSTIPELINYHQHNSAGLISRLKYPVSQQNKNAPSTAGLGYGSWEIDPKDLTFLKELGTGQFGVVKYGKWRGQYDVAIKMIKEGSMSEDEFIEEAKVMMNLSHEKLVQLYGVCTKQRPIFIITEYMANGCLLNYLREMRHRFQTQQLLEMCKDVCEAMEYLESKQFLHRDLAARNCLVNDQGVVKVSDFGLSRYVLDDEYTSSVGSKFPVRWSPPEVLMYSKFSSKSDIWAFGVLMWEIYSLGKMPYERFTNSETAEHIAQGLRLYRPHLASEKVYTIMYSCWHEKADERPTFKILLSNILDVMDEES
T1 sequence (P51451 whole entry): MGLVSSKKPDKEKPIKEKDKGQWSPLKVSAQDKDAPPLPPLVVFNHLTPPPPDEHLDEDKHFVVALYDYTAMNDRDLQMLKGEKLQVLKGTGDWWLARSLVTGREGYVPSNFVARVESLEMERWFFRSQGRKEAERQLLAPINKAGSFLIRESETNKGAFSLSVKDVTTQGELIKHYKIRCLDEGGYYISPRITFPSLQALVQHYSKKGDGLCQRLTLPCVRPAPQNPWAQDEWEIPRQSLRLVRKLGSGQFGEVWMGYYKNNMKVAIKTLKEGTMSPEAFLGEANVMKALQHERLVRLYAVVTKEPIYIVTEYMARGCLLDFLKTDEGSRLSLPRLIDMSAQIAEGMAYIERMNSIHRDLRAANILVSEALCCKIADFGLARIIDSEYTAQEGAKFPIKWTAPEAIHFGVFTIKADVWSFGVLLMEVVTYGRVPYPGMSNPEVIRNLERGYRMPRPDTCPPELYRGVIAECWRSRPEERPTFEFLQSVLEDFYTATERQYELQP
T7 sequence (O00443 whole entry): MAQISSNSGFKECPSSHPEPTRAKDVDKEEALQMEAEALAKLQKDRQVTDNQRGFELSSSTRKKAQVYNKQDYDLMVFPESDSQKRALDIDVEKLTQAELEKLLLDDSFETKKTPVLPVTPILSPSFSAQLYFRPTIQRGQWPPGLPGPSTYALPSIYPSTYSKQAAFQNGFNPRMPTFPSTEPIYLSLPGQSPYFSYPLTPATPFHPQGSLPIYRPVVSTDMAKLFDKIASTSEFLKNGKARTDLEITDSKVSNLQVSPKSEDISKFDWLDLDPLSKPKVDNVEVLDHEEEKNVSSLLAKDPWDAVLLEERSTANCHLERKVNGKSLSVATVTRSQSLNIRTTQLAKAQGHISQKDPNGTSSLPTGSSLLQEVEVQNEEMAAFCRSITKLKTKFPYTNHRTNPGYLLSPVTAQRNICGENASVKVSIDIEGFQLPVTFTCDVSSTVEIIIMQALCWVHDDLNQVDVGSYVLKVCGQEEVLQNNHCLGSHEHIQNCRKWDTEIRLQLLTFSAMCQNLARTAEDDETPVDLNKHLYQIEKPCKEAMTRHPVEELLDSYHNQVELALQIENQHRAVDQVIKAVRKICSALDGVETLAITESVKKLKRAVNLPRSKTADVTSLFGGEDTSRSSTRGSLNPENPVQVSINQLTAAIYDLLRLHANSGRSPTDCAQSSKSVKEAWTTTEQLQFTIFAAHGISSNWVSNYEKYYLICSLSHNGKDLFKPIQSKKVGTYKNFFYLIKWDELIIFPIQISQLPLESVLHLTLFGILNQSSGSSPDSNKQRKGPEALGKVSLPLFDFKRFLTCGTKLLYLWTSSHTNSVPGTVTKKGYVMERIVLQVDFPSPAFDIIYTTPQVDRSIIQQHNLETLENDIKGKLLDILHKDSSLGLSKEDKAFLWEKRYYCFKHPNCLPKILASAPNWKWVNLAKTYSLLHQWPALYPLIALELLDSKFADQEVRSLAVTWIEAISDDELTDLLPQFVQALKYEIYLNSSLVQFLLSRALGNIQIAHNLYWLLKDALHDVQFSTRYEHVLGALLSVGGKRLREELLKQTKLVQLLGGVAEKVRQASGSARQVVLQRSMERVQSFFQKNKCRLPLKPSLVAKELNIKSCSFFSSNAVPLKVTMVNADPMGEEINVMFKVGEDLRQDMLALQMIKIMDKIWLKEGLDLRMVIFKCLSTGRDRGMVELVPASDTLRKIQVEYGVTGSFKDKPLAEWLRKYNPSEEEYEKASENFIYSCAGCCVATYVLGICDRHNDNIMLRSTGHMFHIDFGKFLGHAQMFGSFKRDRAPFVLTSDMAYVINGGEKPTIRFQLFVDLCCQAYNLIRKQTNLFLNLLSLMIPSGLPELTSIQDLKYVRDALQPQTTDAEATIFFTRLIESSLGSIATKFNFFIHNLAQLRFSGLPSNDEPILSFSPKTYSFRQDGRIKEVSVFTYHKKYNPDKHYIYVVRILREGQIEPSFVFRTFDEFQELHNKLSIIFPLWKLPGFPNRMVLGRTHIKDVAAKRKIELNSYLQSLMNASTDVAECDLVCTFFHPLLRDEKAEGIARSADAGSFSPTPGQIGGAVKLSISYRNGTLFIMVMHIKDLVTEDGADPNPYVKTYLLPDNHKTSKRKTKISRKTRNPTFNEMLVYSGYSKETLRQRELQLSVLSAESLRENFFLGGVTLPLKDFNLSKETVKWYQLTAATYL

For `COc1ccc2c(c1OC)c(=O)n1c3ccc(O)cc3c3ccnc2c31` [MW01, 5-Hydroxy-10,11-dimethoxy-9H-benzo[c]indolo[3,2,1-ij][1,5]naphthyridin-9-one], the inhibition at 1 µM at BLK (setting [1]) was found to be 8%; on BTK (setting [1]), 11%; on FLT3 (setting [1]), 61%; at IRAK1 (setting [1]), 57%; on MAP4K2 (GCK) (setting [1]), 50%; on MINK1 (setting [1]) it was 60%. For the same molecule, on PIK3C2A (PI3K-C2 alpha) (setting [1]), the inhibition at 1 µM amounted to 26%. Also, the inhibition at 10 µM on BLK (setting [2]) is 26%; at BTK (setting [2]), 23%; at FLT3 (setting [2]), 86%; at IRAK1 (setting [2]), 67%; on MAP4K2 (GCK) (setting [2]), 77%; at MINK1 (setting [2]), 73%. Further, the inhibition at 10 µM on PIK3C2A (PI3K-C2 alpha) (setting [2]) amounted to 43%.

For `COc1ccc2c(c1)c1ccnc3c4nc(OC)ccc4c(=O)n2c13` [MW01-E6, 5,15-dimethoxy-1,11,14-triazapentacyclo[10.7.1,0^2,7.0^8,^20.0^13,^18]icosa-2(7),3,5,8(20),9,11,13(18),14,16-nonaen-19-one], the inhibition at 10 µM at BLK (setting [3]) was found to be 23%; at BTK (setting [4]), 30%; on FLT3 (setting [5]), 31%; on IRAK1 (setting [6]), 56%; at MAP4K2 (GCK) (setting [7]), 70%; on MINK1 (setting [8]) it was 57%. For the same molecule, at PIK3C2A (PI3K-C2 alpha) (setting [9]), the inhibition at 10 µM came out at 26%.

For the molecule `O=c1c2cc(O)ccc2c2nccc3c4cc(O)ccc4n1c32` [MW01-E10, 5,16-dihydroxy-1,11-diazapentacyclo[10.7.1.0^2,^7.0^8,^20.0^13,^18]icosa-2(7),3,5,8(20),9,11,13(18),14,16-nonaen-19-one], the inhibition at 10 µM at BLK (setting [3]) worked out at 42%; at BTK (setting [4]), 69%; at FLT3 (setting [5]) it was 27%; at IRAK1 (setting [6]) it was 71%; at MAP4K2 (GCK) (setting [7]), 98%; on MINK1 (setting [8]) it was 92%. Further, the inhibition at 10 µM on PIK3C2A (PI3K-C2 alpha) (setting [9]) is 31%.

`COc1ccc2c(c1)c1ccnc3c4ccnc(OC)c4c(=O)n2c13` [MW01-E14, 5,17-dimethoxy-1,11,16-triazapentacyclo[10.7.1.0^2,^7.0^8,^20.0^13,^18]icosa-2(7),3,5,8(20),9,11,13(18),14,16-nonaen-19-one]: the inhibition at 10 µM at BLK (setting [3]) turned out to be 9%; at BTK (setting [4]), 29%; at FLT3 (setting [5]), 12%; on IRAK1 (setting [6]), 9%; on MAP4K2 (GCK) (setting [7]), 81%; on MINK1 (setting [8]) it was 12%. Moreover, the inhibition at 10 µM at PIK3C2A (PI3K-C2 alpha) (setting [9]) came to 23%.

As to `O=c1c2cnccc2c2nccc3c4cc(O)ccc4n1c32` [MW01-E18, 5-hydroxy-1,11,16-triazapentacyclo[10.7.1.0^2,^7.0^8,^20.0^13,^18]icosa-2(7),3,5,8(20),9,11,13(18),14,16-nonaen-19-one], the inhibition at 10 µM came to 23% on BLK (setting [3]); 30% on BTK (setting [4]); 65% at FLT3 (setting [5]); 69% at IRAK1 (setting [6]); 93% at MAP4K2 (GCK) (setting [7]); 85% at MINK1 (setting [8]). The inhibition at 10 µM on PIK3C2A (PI3K-C2 alpha) (setting [9]) amounted to 44%.

`COc1ccc2cc3c(N)nn(C(=O)c4cccc(N(C)C)c4)c3nc2c1` [MW05, (3-Amino-7-methoxypyrazolo[3,4-b]quinolin-1-yl)-[3-(dimethylamino)phenyl]methanone]: the inhibition at 1 µM on BLK (setting [1]) was found to be 0%; on BTK (setting [1]), 5%; at FLT3 (setting [1]), 2%; on IRAK1 (setting [1]), 17%; on MAP4K2 (GCK) (setting [1]), 13%; at MINK1 (setting [1]) it was 20%. Further, the inhibition at 1 µM on PIK3C2A (PI3K-C2 alpha) (setting [1]) was -5%. The inhibition at 10 µM at BLK (setting [2]) is -1%; on BTK (setting [2]), 8%; at FLT3 (setting [2]), 6%; at IRAK1 (setting [2]), -7%; on MAP4K2 (GCK) (setting [2]) it was 10%; at MINK1 (setting [2]), 9%. Moreover, the inhibition at 10 µM on PIK3C2A (PI3K-C2 alpha) (setting [2]) came out at 1%.

Turning to `COc1ccc2nc3c(cc2c1)c(N)nn3C(=O)c1cccc(N(C)C)c1` [MW05-E2, 1-[3-(dimethylamino)benzoyl]-6-methoxy-1H-pyrazolo[3,4-b]quinolin-3-amine], the inhibition at 10 µM was found to be 10% on BLK (setting [3]); 7% at BTK (setting [4]); 17% at FLT3 (setting [5]); 2% at IRAK1 (setting [6]); 2% on MAP4K2 (GCK) (setting [7]); 29% on MINK1 (setting [8]). Besides, the inhibition at 10 µM on PIK3C2A (PI3K-C2 alpha) (setting [9]) is 10%.
